Source: ChEMBL document CHEMBL1126628, “Design, synthesis, and neurochemical evaluation of 5-(3-alkyl-1,2,4- oxadiazol-5-yl)-1,4,5,6-tetrahydropyrimidines as M1 muscarinic receptor agonists” (J Med Chem, 1993)

Columns and labels:
Rattus norvegicus [1] = species on record: Rattus norvegicus
Description: Ability to stimulate phosphoinositol metabolism was examined in the rat cerebral cortex at 100 uM

[2] = target: Muscarinic acetylcholine receptor
Description: Inhibition of [3H]-(R)-QNB binding to muscarinic receptors of rat brain membranes.

Rattus norvegicus [3] = species on record: Rattus norvegicus; assay: cells; details: Hippocampus
Description: Inhibition of the response (stimulation of phosphoinositol metabolism in rat hippocampus) to 10 uM of compound by AF-DX 116

Rattus norvegicus [4] = species on record: Rattus norvegicus; assay: cells; details: Hippocampus; remark: listed apart in the source
Description: Inhibition of the response (stimulation of phosphoinositol metabolism in rat hippocampus) to 10 uM of compound by p-F-hexahydrosiladifenidol

Rattus norvegicus [5] = species on record: Rattus norvegicus; assay: cells; details: Hippocampus; remark: listed apart in the source
Description: Inhibition of the response (stimulation of phosphoinositol metabolism in rat hippocampus) to 10 uM of compound by pirenzepine

Rattus norvegicus [6] = species on record: Rattus norvegicus; assay: Ability to stimulate phosphoinisitol metabolism was examined in the rat hippocampus represented as % maximal stimulation; type: functional
Rattus norvegicus [7] = species on record: Rattus norvegicus; assay: cells; details: Hippocampus; remark: listed apart in the source
Description: Effective concentration of compound that can stimulate phosphoinositol metabolism in rat hippocampus

Rattus norvegicus [8] = species on record: Rattus norvegicus; assay: Ability to stimulate phosphoinisitol metabolism was examined in the rat hippocampus; type: functional

| Structure (SMILES) | IC50 [2] | PI (Rattus norvegicus [1]) | other results |
| --- | --- | --- | --- |
| Cc1noc(C2=CCCN(C)C2)n1 | 690 nM | 50% |  |
| CCCCCCCc1noc(C2CN=CNC2)n1.O=C(O)C(F)(F)F (configuration not stated) | 2300 nM | 34% |  |
| CCCCCCCCc1noc(C2CN=CNC2)n1.O=C(O)C(F)(F)F (configuration not stated) | 530 nM | 28% |  |
| Cc1noc(C2CN=CNC2)n1.O=C(O)C(F)(F)F (configuration not stated) |  | 700% | IC50 (Rattus norvegicus [3]): 1700 nM; IC50 (Rattus norvegicus [4]): 1200 nM; IC50 (Rattus norvegicus [5]): 38 nM; Max stimulation (Rattus norvegicus [6]): 510%; EC50 (Rattus norvegicus [7]): 5200 nM |
| Cc1noc(C2CN3CCC2CC3)n1 (configuration not stated) | 350 nM | 100% |  |
| CCc1noc(C2CN=CNC2)n1.O=C(O)C(F)(F)F (configuration not stated) |  | 130% |  |
| CC(=O)OC1CN2CCC1CC2 (configuration not stated) [ACECLIDINE] |  | 80% | IC50 (Rattus norvegicus [4]): 23 nM; Max stimulation (Rattus norvegicus [8]): 390% |
| C[N+](C)(C)CCOC(N)=O.[Cl-] [CARBACHOL] |  | 470% |  |

Further lines, with some results ahead:

| IC50 [2] | Structure (SMILES) | PI (Rattus norvegicus [1]) | other results |
| --- | --- | --- | --- |
| 2300 nM | CCCCCCc1noc(C2CN=CNC2)n1.O=C(O)C(F)(F)F (configuration not stated) | 4.3% |  |
| 560 nM | CCCCCc1noc(C2CN=CNC2)n1.O=C(O)C(F)(F)F (configuration not stated) | 29% |  |
| 550 nM | CCCc1noc(C2CN=CNC2)n1.O=C(O)C(F)(F)F (configuration not stated) | 79% |  |
| 490 nM | CCCCc1noc(C2CN=CNC2)n1.O=C(O)C(F)(F)F (configuration not stated) | 61% |  |
